Key:
RD = assay: Broad cell line profiling, RD; assay type: cell-based; conditions: Human Rhabdomyosarcoma, read-out: PA IC50
Description: • A panel of human and mouse cancer cell types used to assess the breadth of PA activity, including multiple therapy resistant metastatic mesenchymal tumor cell lines and primary glioblastoma patient-derived metastatic stem/tumor initiating cell populations.

Jurkat cells = assay: Polysome profiling; assay type: cell-based, human; conditions: 6 hours at 50 nM
Protocol: FIG. 7. Portimine A targets NMD3 and prevents polysome formation. […] (A) Immunoblot showing reduced NMD3 levels in shNMD3 Jurkat and HeLa cells. […] Jurkat cells were treated with 12.5 nM of PA for 12 or 24 hours. Jurkat and HeLa cells were treated with 5 nM or 150 nM of PA for 24 hours. Data represents mean±SD of biologically replicated experiments (n=3). […] Cell lysates were fractionated by sucrose gradient (5-50%) and each fraction were analyzed by western blot. eIF6 levels increase in 60S subunit fraction and decrease in ribosome-free fractions after PA treatment. RPS6, a 40S and polysome subunits marker, is decreased in polysome fractions after PA treatment. Results are representative of three independent experiments. […] Relative protein levels in each fraction were normalized to the peak fraction of the indicated protein from the DMSO cells and plotted. Data represents mean±SD of biologically replicated experiments (n=3). Statistical analysis was performed using multiple unpaired Student t-test. * p≤0.05; ** p≤0.01; *** p≤0.005; **** p≤0.0001. Treatment condition: Jurkat (5 M per condition); Incubate cells (1 M/mL) with inhibitors for 6 hr, 12 hr and 24 hr, respectively.
• 1) Portimine A and its functional analogs show stereo-selective acute toxicity in cancer cells (FIG. 1). […] (B) Structure of portimine related analogs: phenyl-portimine A (Ph-PA, 36) and epi-portimine A (ePA, 38). […]

## C=CC1=C[C@@H]2[C@@H]3O[C@]4(CC[C@H](O4)C(C)C[C@@H](O)C3=O)CC(O)C3=NCC[C@@]32CC1 (some centres unmarked) [PA, portimine A]
RD
  IC50: 0.56 nM
Jurkat cells
  polysome profiling, protein translation: protein translation inhibition

Reference: patent publication US20260242390A1, “TOTAL SYNTHESES OF PORTIMINE A AND ANALOGUES THEREOF AS SMALL MOLECULE MODULATORS OF NMD3” (priority 2023, published 2026)
